Reference: patent US20250313547A1, “CEREBLON LIGANDS AND BIFUNCTIONAL COMPOUNDS COMPRISING THE SAME” (Arvinas Operations, Inc., priority 2017, published 2025)

Key:
[1] = target: immobilized CRBN protein (cereblon) (Homo sapiens (Human), UniProt Q96SW2); assay: Surface plasmon resonance (SPR) KD determination on immobilized cereblon; conditions: average of at least N=2, 1:1 fit, read-out: KD Binding to immobilized CRBN protein in SPR assay
Procedure: The surface plasmon resonance (SPR) experiments were conducted on a Biacore3000 (GE Healthcare). Myc-tagged cereblon was immobilized on a carboxymethylated dextran surface (CM5) amine coupled to anti-Myc antibody to recognize the Myc tag. His-tagged cereblon protein was immobilized on a carboxymethylated dextran surface with nitriloacetic acid (NTA), taking advantage of NTA/Ni^2+ chelation. The prepared surface was allowed to equilibrate over three hours in running buffer (10 mM HEPES buffer @pH 7.4, 150 mM NaCl, 0.005% P20,2% DMSO).
All compounds were prepared in 100% DMSO stock plates with a top concentration of 5 mM in a 3× serial dilution. Compounds were transferred from the stock plate to the assay plate and diluted into running buffer containing no DMSO. All compounds were run as a six-concentration series with a final assay top concentration of 100 μM.
Data analysis was performed in Scrubber 2 (BioLogic software, Campbell, Australia). Blanks were subtracted and data was corrected for DMSO against a standard DMSO curve.

[2] = tested on: androgen receptor (AR); assay: AR ELISA assay (androgen receptor degradation); assay type: cell-based; conditions: LNCaP and/or VCaP cells, 5 hours drug treatment; for AR Dmax: % degraded
Procedure: 5. AR ELISA Assay Protocol
Compounds were evaluated in this assay in LNCaP and/or VCaP cells utilizing similar protocols. The protocols used with VCaP cells are described below. The androgen receptor ELISA assay was performed using PathScan AR Sandwich ELISA (Cell Signaling Catalog #12850) according to the following assay steps:
VCaP cells were seeded at 40,000 cells/well at a volume of 100 µL/well in VCaP assay medium [Phenol red free RPMI (Gibco Cat #11835-030); 5% Charcoal Stripped (Dextran treated) FBS (Omega Scientific, Cat #FB-04); 1% penstrep (Life Technologies, Gibco Cat #: 10378-016)] in Corning 3904 plates. The cells were incubated for a minimum of 3 days. Cells were dosed with PROTACs diluted in 0.01% DMSO and the drug treatment was allowed for 5 hours.
AR ELISA (Cell Signaling) was performed as follows. 1×Cell Signaling Cell lysis buffer was made (Catalogue #9803; comes with the kit). Media from the treated wells is aspirated, and 100 μL 1×cell lysis buffer/well is added. The cells were placed on a shaker for 10 minutes at 4° C. Twenty microliters of lysate was transferred to 100 μl of Diluent in ELISA plate ([…]-0.075 μg/ml). The lysate-diluent mixture was shaken for 30 minutes at 37° C. Allow mouse AR antibody, anti-mouse antibody, TMB, and STOP solution to come to room temperature. The 1×ELISA buffer included in kit was made and loaded in the reservoir. Media from the plates was discarded, the ELISA plate tapped hard on paper towel, and washed 4×200 μl ELISA wash buffer using a plate washer.
One-hundred (100) μL/well of mouse AR detection Ab was added; the plates were covered and shaken at 37° C. for 1 hour; media was discarded from the plates, the plates were tapped on a paper towel, washed 4× with 200 μL ELISA wash buffer with a plate washer.
One-hundred (100) μL/well of anti-mouse—HRP conjugated Ab (comes with the kit) was added; the plates were covered and shaken at 37° C. for 30 minutes; the TMB reagent was allowed to come to room temperature; the media was discard from the plate, the plates were tapped on paper towel, washed 4× with 200 μL of ELISA wash buffer; the plates were tapped the plates on paper towel. One-hundred (100) μL of TMB was added and the plates shaken for 2 minutes—while watching for color development. One-hundred (100) μL Stop solution was added when light blue color developed. Plates were shaken and read at 450 nm.

immobilized CRBN protein (cereblon), sequence (Q96SW2 whole entry): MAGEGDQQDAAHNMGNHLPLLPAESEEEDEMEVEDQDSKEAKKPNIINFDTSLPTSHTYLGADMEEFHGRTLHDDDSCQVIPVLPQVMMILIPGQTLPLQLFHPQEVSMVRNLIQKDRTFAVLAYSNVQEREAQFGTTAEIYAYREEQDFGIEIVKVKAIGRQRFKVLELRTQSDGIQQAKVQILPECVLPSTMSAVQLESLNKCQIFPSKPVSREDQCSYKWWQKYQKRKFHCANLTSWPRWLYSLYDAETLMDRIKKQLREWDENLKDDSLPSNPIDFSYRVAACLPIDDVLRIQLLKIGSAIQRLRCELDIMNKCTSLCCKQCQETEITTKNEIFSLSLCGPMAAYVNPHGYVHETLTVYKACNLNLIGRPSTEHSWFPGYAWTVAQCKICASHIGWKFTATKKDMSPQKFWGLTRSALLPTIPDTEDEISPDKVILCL

Kd [1] [µM] | DC50 [2] [µM] | SMILES | AR Dmax [2]
> 100 |  | Cn1cc(N2C(=O)c3ccccc3C2=O)c(=O)[nH]c1=O [compound 21] | 
> 100 |  | O=c1ccn([C@H]2C[C@H](O)[C@@H](CO)O2)c(=O)[nH]1 [compound 37] | 
10 to 100 |  | N#Cc1ccc(N2C(=O)c3ccccc3C2=O)c(=O)[nH]1 [compound 44] | 
10 to 100 |  | O=c1ccn(-c2cccnc2)c(=O)[nH]1 [compound 40] | 
> 100 |  | O=C1NC(C(F)(F)F)CCC1N1C(=O)c2cccc(F)c2C1=O (stereo not drawn) [compound 6] | 
> 100 |  | CCOc1cnn(C2CCC(=O)NC2=O)c(=O)c1Cl (stereo not drawn) [compound 15] | 
> 100 |  | O=C1c2ccccc2C(=O)N1c1c[nH]c(=O)[nH]c1=O [compound 26] | 
> 100 |  | CCOc1ccn(C2CCC(=O)NC2=O)c(=O)c1 (stereo not drawn) [compound 31] | 
> 100 |  | O=C1CCC(N2C(=O)c3ccc(F)cc3C2=O)C(=O)N1 (stereo not drawn) [compound 17] | 
10 to 100 |  | N#Cc1cn(-c2cnc3ccccc3c2)c(=O)[nH]c1=O [compound 23] | 
10 to 100 |  | O=c1ccn(-c2cncc3ccccc23)c(=O)[nH]1 [compound 34] | 
1 to 10 |  | O=C1CCN(c2cncc3ccccc23)C(=O)N1 [compound 32] | 
> 100 |  | CNc1ccccc1C(=O)NCCN1C(=O)CCNC1=O [compound 11] | 
> 100 |  | Cc1ccncc1-n1cc(C#N)c(=O)[nH]c1=O [compound 36] | 
> 100 |  | O=C1c2ccccc2C(=O)N1CCn1ccc(=O)[nH]c1=O [compound 16] | 
 | ≥ 0.1 | CC1(C)[C@H](NC(=O)c2ccc(N3CCC(CN4CCN(c5ccc6c(c5)C(=O)N(c5ccc(O)[nH]c5=O)C6=O)CC4)CC3)cc2)C(C)(C)[C@H]1Oc1ccc(C#N)c(Cl)c1 [PROTAC-45, N-((1r,3r)-3-(3-chloro-4-cyanophenoxy)-2,2,4,4-tetramethylcyclobutyl)-4-(4-((4-(2-(6-hydroxy-2-oxo-1,2-dihydropyridin-3-yl)-1,3-dioxoisoindolin-5-yl)piperazin-1-yl)methyl)piperidin-1-yl)benzamide] | C (C <= 50)
 | < 0.001 | N#Cc1ccc(O[C@H]2CC[C@H](NC(=O)c3ccc(N4CCC(CN5CCN(c6ccc(C(=O)NC7CCC(=O)NC7=O)cc6)CC5)CC4)nn3)CC2)cc1Cl (stereo partly drawn) [PROTAC-59, N-((1r,4r)-4-(3-chloro-4-cyanophenoxy)cyclohexyl)-6-(4-((4-(4-((2,6-dioxopiperidin-3-yl)carbamoyl)phenyl)piperazin-1-yl)methyl)piperidin-1-yl)pyridazine-3-carboxamide] | A (A > 75)
 | ≥ 0.1 | CN(C(=O)c1ccc(OCCCCCN2CCN(c3ccc(C(=O)N[C@H]4C(C)(C)[C@H](Oc5ccc(C#N)c(Cl)c5)C4(C)C)cn3)CC2)cc1)C1CCC(=O)NC1=O (mixture of isomers) [PROTAC-49, rac-N-((1r,3r)-3-(3-chloro-4-cyanophenoxy)-2,2,4,4-tetramethylcyclobutyl)-6-(4-(5-(4-((2,6-dioxopiperidin-3-yl)(methyl)carbamoyl)phenoxy)pentyl)piperazin-1-yl)nicotinamide] | C (C <= 50)
 | ≥ 0.1 | CC1(C)[C@H](NC(=O)c2ccc(N3CCC(CN4CCC5(CC4)CC(=O)N(C4CCC(=O)NC4=O)C5=O)CC3)cc2)C(C)(C)[C@H]1Oc1ccc(C#N)c(Cl)c1 (mixture of isomers) [PROTAC-75, rac-N-((1r,3r)-3-(3-chloro-4-cyanophenoxy)-2,2,4,4-tetramethylcyclobutyl)-4-(4-((2-(2,6-dioxopiperidin-3-yl)-1,3-dioxo-2,8-diazaspiro[4.5]decan-8-yl)methyl)piperidin-1-yl)benzamide] | 6C (C <= 50)
 | < 0.001 | CC1(C)[C@H](NC(=O)c2ccc(CCCCN3CCN(c4cnn(C5CCC(=O)NC5=O)c(=O)c4)CC3)nc2)C(C)(C)[C@H]1Oc1ccc(C#N)c(Cl)c1 (stereo partly drawn) [PROTAC-61, N-((1r,3r)-3-(3-chloro-4-cyanophenoxy)-2,2,4,4-tetramethylcyclobutyl)-6-(4-(4-(1-(2,6-dioxopiperidin-3-yl)-6-oxo-1,6-dihydropyridazin-4-yl)piperazin-1-yl)butyl)nicotinamide] | B (50 < B <= 75)
 | < 0.001 | CC1(C)[C@H](NC(=O)c2ccc(N3CCN(CCCCCCOc4cnn(C5CCC(=O)NC5=O)c(=O)c4)CC3)nc2)C(C)(C)[C@H]1Oc1ccc(C#N)c(Cl)c1 (stereo partly drawn) [PROTAC-29, N-((1r,3r)-3-(3-chloro-4-cyanophenoxy)-2,2,4,4-tetramethylcyclobutyl)-6-(4-(6-((1-(2,6-dioxopiperidin-3-yl)-6-oxo-1,6-dihydropyridazin-4-yl)oxy)hexyl)piperazin-1-yl)nicotinamide] | B (50 < B <= 75)
 | 0.001 to 0.01 | CC1(C)[C@H](NC(=O)c2ccc(N3CCN(CCCCCOc4ccc5c(-n6ccc(=O)[nH]c6=O)cncc5c4)CC3)nc2)C(C)(C)[C@H]1Oc1ccc(C#N)c(Cl)c1 [PROTAC-79, N-((1r,3r)-3-(3-chloro-4-cyanophenoxy)-2,2,4,4-tetramethylcyclobutyl)-6-(4-(5-((4-(2,4-dioxo-3,4-dihydropyrimidin-1(2H)-yl)isoquinolin-7-yl)oxy)pentyl)piperazin-1-yl)nicotinamide] | C (C <= 50)
 | ≥ 0.1 | Cc1nc2c(OCCCCCN3CCN(c4ccc(C(=O)N[C@H]5C(C)(C)[C@H](Oc6ccc(C#N)c(Cl)c6)C5(C)C)cn4)CC3)cccc2c(=O)n1C1CCC(=O)NC1=O (stereo partly drawn) [PROTAC-30, N-((1r,3r)-3-(3-chloro-4-cyanophenoxy)-2,2,4,4-tetramethylcyclobutyl)-6-(4-(5-((3-(2,6-dioxopiperidin-3-yl)-2-methyl-4-oxo-3,4-dihydroquinazolin-8-yl)oxy)pentyl)piperazin-1-yl)nicotinamide] | C (C <= 50)
 | 0.001 to 0.01 | CC1(C)[C@H](NC(=O)c2ccc(N3CCN(CCCCCOc4ccc(C(=O)NC5CCC(=O)NC5=O)nc4)CC3)nc2)C(C)(C)[C@H]1Oc1ccc(C#N)c(Cl)c1 (mixture of isomers) [PROTAC-27, rac-5-((5-(4-(5-(((1r,3r)-3-(3-chloro-4-cyanophenoxy)-2,2,4,4-tetramethylcyclobutyl)carbamoyl)pyridin-2-yl)piperazin-1-yl)pentyl)oxy)-N-(2,6-dioxopiperidin-3-yl)picolinamide] | B (50 < B <= 75)
 | < 0.001 | CC1(C)[C@H](NC(=O)c2ccc(N3CCC(CCN4CCN(c5ccc(C(=O)NC6CCC(=O)NC6=O)nc5)CC4)CC3)nc2)C(C)(C)[C@H]1Oc1ccc(C#N)c(Cl)c1 (mixture of isomers) [PROTAC-52, rac-5-(4-(2-(1-(5-(((1r,3r)-3-(3-chloro-4-cyanophenoxy)-2,2,4,4-tetramethylcyclobutyl)carbamoyl)pyridin-2-yl)piperidin-4-yl)ethyl)piperazin-1-yl)-N-(2,6-dioxopiperidin-3-yl)picolinamide] | B (50 < B <= 75)
 | ≥ 0.1 | CC1(C)[C@H](NC(=O)c2ccc(CCCN3CCC4(CC3)CC(=O)N(C3CCC(=O)NC3=O)C4=O)cc2)C(C)(C)[C@H]1Oc1ccc(C#N)c(Cl)c1 (mixture of isomers) [PROTAC-76, rac-N-((1r,3r)-3-(3-chloro-4-cyanophenoxy)-2,2,4,4-tetramethylcyclobutyl)-4-(3-(2-(2,6-dioxopiperidin-3-yl)-1,3-dioxo-2,8-diazaspiro[4.5]decan-8-yl)propyl)benzamide] | C (C <= 50)
 | ≥ 0.1 | CC1(C)[C@H](NC(=O)c2ccc(/C=C/CN3CCC4(CC3)CC(=O)N(C3CCC(=O)NC3=O)C4=O)cc2)C(C)(C)[C@H]1Oc1ccc(C#N)c(Cl)c1 (mixture of isomers) [PROTAC-77, rac-N-((1r,3r)-3-(3-chloro-4-cyanophenoxy)-2,2,4,4-tetramethylcyclobutyl)-4-((E)-3-(2-(2,6-dioxopiperidin-3-yl)-1,3-dioxo-2,8-diazaspiro[4.5]decan-8-yl)prop-1-en-1-yl)benzamide] | C (C <= 50)
